Reference: patent publication US11730720B2, “ALK5 inhibitors” (THERAVANCE BIOPHARMA R&D IP, LLC, priority 2018, dated 2023)

Tests used:
[1] = target: T1, recombinant human ALK5 (TGF-βR1) protein (Homo sapiens, UniProt P36897); experiment: Biochemical ALK5 (TGF-βR1) assay to measure pKi (LANCE Ultra ULight kinase assay); conditions: apparent pKi, converted from pIC50 using the Cheng-Prusoff equation
T1 construct: purchased Life Technologies PR9075A
T1 sequence (P36897 34-503): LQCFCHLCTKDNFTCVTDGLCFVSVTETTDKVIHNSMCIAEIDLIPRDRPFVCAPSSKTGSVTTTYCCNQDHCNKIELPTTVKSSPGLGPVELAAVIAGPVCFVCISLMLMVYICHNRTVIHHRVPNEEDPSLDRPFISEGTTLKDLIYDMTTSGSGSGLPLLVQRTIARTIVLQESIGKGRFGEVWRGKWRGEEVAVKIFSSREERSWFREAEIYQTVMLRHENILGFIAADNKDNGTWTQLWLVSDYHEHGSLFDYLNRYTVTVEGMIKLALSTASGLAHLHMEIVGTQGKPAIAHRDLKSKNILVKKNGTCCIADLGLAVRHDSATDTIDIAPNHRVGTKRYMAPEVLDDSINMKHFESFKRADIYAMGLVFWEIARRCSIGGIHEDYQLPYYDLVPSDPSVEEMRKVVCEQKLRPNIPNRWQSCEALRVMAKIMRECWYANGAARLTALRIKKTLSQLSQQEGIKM
Method in brief: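 TR-FRET kinase format: compound dose range 10 μM–25 pM equilibrated 60 min with human ALK5 and ULight-labelled topoisomerase 2α peptide in HEPES/MgCl2 buffer pH 7.5 with DTT. Reaction started with ATP (125 μM stock, 5× final), 60 min at 37° C, stopped with EDTA/Eu-anti-phospho antibody; pKi derived from pIC50 via Cheng-Prusoff.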

[2] = tested on: TGF-β-stimulated SMAD3 phosphorylation in BEAS-2B cells; experiment: Cellular ALK5 potency assay, inhibition of TGF-β stimulated pSMAD3 formation in BEAS-2B cells; type: cell-based; conditions: Homo sapiens, inhibition of TGF-β (10 ng/mL) stimulated pSMAD3 formation, 1 hour compound incubation, read-out: BEAS2B pIC50 (converted)
Method in brief: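 Phospho-SMAD3 was quantified by AlphaLISA in lysates of human lung epithelial BEAS-2B cells. Compound was added 1 h (37 °C, HEPES/BSA-supplemented HBSS) before a 30 min challenge with 10 ng/mL TGF-β. Values are pIC50 relative to stimulated cells without compound.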

SMILES	Ki [1]	IC50 [2]
CC(C)NCCn1cc(-c2cnc3ccc(-c4c[nH]nc4-c4cc(Cl)ccc4F)nc3c2)cn1 [Compound 1-94, N-(2-(4-(6-(3-(5-chloro-2-fluorophenyl)-1H-pyrazol-4-yl)-1,5-naphthyridin-3-yl)-1H-pyrazol-1-yl)ethyl)propan-2-amine]	≤ 0.0316 nM	25.1 to 158 nM
CN1CCC(N(C)c2cnc3ccc(-c4c[nH]nc4-c4cc(Cl)c(F)cc4F)nc3c2)CC1 [Compound 6-16, 6-[3-(5-chloro-2,4-difluoro-phenyl)-1H-pyrazol-4-yl]-N-methyl-N-(1-methyl-4-piperidyl)-1,5-naphthyridin-3-amine]	0.398 to 3.16 nM	25.1 to 158 nM
Fc1cc(F)c(-c2n[nH]cc2-c2ccc3ncc(NCC4CCCN4)cc3n2)cc1Cl (racemic) [Compound 6-73, 6-[3-(5-chloro-2,4-difluoro-phenyl)-1H-pyrazol-4-yl]-N-[[rac-(2S)-pyrrolidin-2-yl]methyl]-1,5-naphthyridin-3-amine]	0.398 to 3.16 nM	25.1 to 158 nM
CN1CCN(C2CCN(c3cnc4ccc(-c5c(-c6cc(Cl)ccc6F)nc6ccccn56)cc4c3)CC2)CC1 [Compound 19-5, 6-[2-(5-chloro-2-fluoro-phenyl)imidazo[1,2-a]pyridin-3-yl]-3-[4-(4-methylpiperazin-1-yl)-1-piperidyl]quinoline]	0.0398 to 0.316 nM	200 to 1260 nM
Fc1ccc(Cl)cc1-c1n[nH]cc1-c1ccc2ncc(N3CCn4nc(C5=CCNC5)nc4C3)cc2n1 [Compound 1-85, 2-(3-(5-chloro-2-fluorophenyl)-1H-pyrazol-4-yl)-7-(2-(2,5-dihydro-1H-pyrrol-3-yl)-5,6-dihydro-[1,2,4]triazolo[1,5-a]pyrazin-7(8H)-yl)-1,5-naphthyridine]	≤ 0.0316 nM	25.1 to 158 nM
OCCN1CCN(c2cnc3ccc(-c4c[nH]nc4-c4ccc(F)c(F)c4)nc3c2)CC1 [Compound 8-8, 2-[4-[6-[3-(3,4-difluorophenyl)-1H-pyrazol-4-yl]-1,5-naphthyridin-3-yl]piperazin-1-yl]ethanol]	3.98 to 31.6 nM	25.1 to 158 nM
NCCn1cc(-c2cnc3ccc(-c4nc[nH]c4-c4ccc(F)c(F)c4)cc3c2)cn1 [Compound 23-1, 2-(4-(6-(5-(3,4-difluorophenyl)-1H-imidazol-4-yl)quinolin-3-yl)-1H-pyrazol-1-yl)ethan-1-amine]	0.0398 to 0.316 nM	25.1 to 158 nM
O=C(NCc1ccccc1)[C@H]1CN(c2cnc3ccc(-c4c[nH]nc4-c4cc(Cl)ccc4F)nc3c2)CCN1 [Compound 1-67, (2R)-N-benzyl-4-[6-[3-(5-chloro-2-fluoro-phenyl)-1H-pyrazol-4-yl]-1,5-naphthyridin-3-yl]piperazine-2-carboxamide]	0.398 to 3.16 nM	25.1 to 158 nM
Fc1ccc(Cl)cc1-c1[nH]cnc1-c1ccc2ncc(-c3cn4c(n3)CNCC4)cc2c1 [Compound 17-14, 6-[5-(5-chloro-2-fluoro-phenyl)-1H-imidazol-4-yl]-3-(5,6,7,8-tetrahydroimidazo[1,2-a]pyrazin-2-yl)quinoline]	0.0398 to 0.316 nM	25.1 to 158 nM
CC(C)NC1CC=C(c2cnc3ccc(-c4c[nH]nc4-c4ccc(F)c(F)c4)nc3c2)CC1 (centres unmarked) [Compound 8-24, 4-(6-(3-(3,4-difluorophenyl)-1H-pyrazol-4-yl)-1,5-naphthyridin-3-yl)-N-isopropylcyclohex-3-en-1-amine]	≤ 0.0316 nM	≤ 20 nM
COC(=O)CC1CN(CCNc2cnc3ccc(-c4nc[nH]c4-c4cc(Cl)ccc4F)nc3c2)CCN1 (centres unmarked) [Compound 2-36, methyl 2-[4-[2-[[6-[5-(5-chloro-2-fluoro-phenyl)-1H-imidazol-4-yl]-1,5-naphthyridin-3-yl]amino]ethyl]piperazin-2-yl]acetate]	0.0398 to 0.316 nM	25.1 to 158 nM
C[C@@H]1CN(CCNc2cnc3ccc(-c4nc[nH]c4-c4cccc(Cl)c4)nc3c2)C[C@H](C)N1 [Compound 29-2, 6-[5-(3-chlorophenyl)-1H-imidazol-4-yl]-N-[2-[rac-(3R,5S)-3,5-dimethylpiperazin-1-yl]ethyl]-1,5-naphthyridin-3-amine]	0.398 to 3.16 nM	25.1 to 158 nM
Fc1ccc(Cl)cc1-c1n[nH]cc1-c1ccc2ncc(N3CC4CNCC43)cc2n1 (centres unmarked) [Compound 1-54, 2-[3-(5-chloro-2-fluoro-phenyl)-1H-pyrazol-4-yl]-7-(3,6-diazabicyclo[3.2.0]heptan-6-yl)-1,5-naphthyridine]	0.398 to 3.16 nM	25.1 to 158 nM
Fc1cc(F)c(-c2n[nH]cc2-c2ccc3ncc(-c4nnn5c4NCC5)cc3n2)cc1Cl [Compound 6-58, 2-[3-(5-chloro-2,4-difluoro-phenyl)-1H-pyrazol-4-yl]-7-(5,6-dihydro-4H-imidazo[1,2-c]triazol-3-yl)-1,5-naphthyridine]	0.0398 to 0.316 nM	25.1 to 158 nM
Fc1ccc(Cl)cc1-c1nc2ccccn2c1-c1ccc2ncc(-c3cnn(C4CCCNC4)c3)cc2c1 (centres unmarked) [Compound 19-2, 6-[2-(5-chloro-2-fluoro-phenyl)imidazo[1,2-a]pyridin-3-yl]-3-[1-(3-piperidyl)pyrazol-4-yl]quinoline]	0.0398 to 0.316 nM	200 to 1260 nM
COC(=O)c1cnc2ccc(-c3[nH]nnc3-c3ccccc3F)nc2c1 [Compound 12-1, methyl 6-(4-(2-fluorophenyl)-1H-1,2,3-triazol-5-yl)-1,5-naphthyridine-3-carboxylate]	3.98 to 31.6 nM	200 to 1260 nM
CN1CCN(CCNc2cnc3ccc(-c4c[nH]nc4-c4cc(Cl)c(F)cc4F)nc3c2)CC1 [Compound 6-2, 6-[3-(5-chloro-2,4-difluoro-phenyl)-1H-pyrazol-4-yl]-N-[2-(4-methylpiperazin-1-yl)ethyl]-1,5-naphthyridin-3-amine]	0.0398 to 0.316 nM	≤ 20 nM
Fc1ccc(Cl)cc1-c1n[nH]cc1-c1ccc2ncc(NC3CCCNC3)cc2n1 (centres unmarked) [Compound 1-25, 6-[3-(5-chloro-2-fluoro-phenyl)-1H-pyrazol-4-yl]-N-(3-piperidyl)-1,5-naphthyridin-3-amine]	0.398 to 3.16 nM	25.1 to 158 nM
CNCCn1cc(-c2cnc3ccc(-c4c[nH]nc4-c4cc(Cl)c(F)cc4F)nc3c2)nn1 [Compound 6-67, 2-[4-[6-[3-(5-chloro-2,4-difluoro-phenyl)-1H-pyrazol-4-yl]-1,5-naphthyridin-3-yl]triazol-1-yl]-N-methyl-ethanamine]	≤ 0.0316 nM	25.1 to 158 nM
CC(C)N1CCN(C(C)(C)CNc2cnc3ccc(-c4c[nH]nc4-c4cc(Cl)ccc4F)nc3c2)CC1 [Compound 1-5, 6-[3-(5-chloro-2-fluoro-phenyl)-1H-pyrazol-4-yl]-N-[2-(4-isopropylpiperazin-1-yl)-2-methyl-propyl]-1,5-naphthyridin-3-amine]	3.98 to 31.6 nM	25.1 to 158 nM
CNC1CN(c2cnc3ccc(-c4c[nH]nc4-c4cc(Cl)ccc4F)nc3c2)C1 [Compound 1-49, 1-(6-(3-(5-chloro-2-fluorophenyl)-1H-pyrazol-4-yl)-1,5-naphthyridin-3-yl)-N-methylazetidin-3-amine]	0.0398 to 0.316 nM	≤ 20 nM
COC(=O)C1CN(CCNc2cnc3ccc(-c4c[nH]nc4-c4cc(Cl)ccc4F)nc3c2)CCN1 (centres unmarked) [Compound 1-22, methyl 4-[2-[[6-[3-(5-chloro-2-fluoro-phenyl)-1H-pyrazol-4-yl]-1,5-naphthyridin-3-yl]amino]ethyl]piperazine-2-carboxylate]	0.0398 to 0.316 nM	25.1 to 158 nM
